Assay results from patent US20240277684A1, “BLOCKADE OF CHEMOKINE (C-C MOTIF) RECEPTOR 2 DURING FLUID RESUSCITATION” (University of South Florida, priority 2022, published 2024).

How the values were obtained:
normal rats = assay: Effects on blood pressure in normal rats; assay type: in vivo, rat
Experimental: (§1) In vivo animal experiments. All procedures were performed in accordance with the National Institutes of Health Guidelines for Use of Laboratory Animals and were approved by the University of South Florida Institutional Animal Care and Use Committeee (IS00008139). Male Sprague-Dawley rats (300-400 g, Envigo, Indianapolis, IN, USA). were anesthetized with 1.7% isoflurane via nose-cone inhalation with the SomnoSuite anesthesia system (Kent Scientific, Torrington, CT, USA). […] The left femoral artery was isolated and cannulated with a 24-gauge peripheral intravenous catheter to allow for blood withdrawal, hemodynamic monitoring, drug administration, and fluid resuscitation. Hemodynamics were continuously monitored with the SurgivetV6400 blood pressure monitor (Med-Electronics, Beltsville, MD, USA), and blood pressures and heart rate were recorded at 1-10 min intervals. All animals were observed over a 10 min period to ensure hemodynamic stability before start of the experiments. All experiments were performed randomized in alternating order. To test the effects of INCB3284 in normal rats, animals received repetitive injections of 1 mL of Lactated Ringer's solution (LR, vehicle) in 10 min intervals (n=3) or increasing doses of the drug (0.55, 0.82, 1.4 and 2.75 μmol/kg INCB3284) in 1 mL LR in 10 min intervals (n=3).

hemorrhagic shock = assay: Example 1 second series: 30 min hemorrhagic shock, fluid resuscitation until t=300 min; assay type: in vivo, rat
Experimental: as §1, with “order.” for “order. To test the effects of INCB3284 in normal rats, animals received repetitive injections of 1 mL of Lactated Ringer's solution (LR, vehicle) in 10 min intervals (n=3) or increasing doses of the drug (0.55, 0.82, 1.4 and 2.75 μmol/kg INCB3284) in 1 mL LR in 10 min intervals (n=3).”
To test the effects of INCB3284 and Maraviroc after HS, a Wiggers fixed pressure hemorrhage and fluid resuscitation model was used as described (Babu F S, et al., Chemokine (C-X-C motif) receptor 4 regulates lung endothelial barrier permeability during resuscitation from hemorrhagic shock. Physiol Res 2019; 68(4):675-679; Nassoiy S P, et al., Effects of the Kv7 voltage-activated potassium channel inhibitor linopirdine in rat models of haemorrhagic shock. Clin Exp Pharmacol Physiol 2018; Nassoiy S P, et al., Kv7 voltage-activated potassium channel inhibitors reduce fluid resuscitation requirements after hemorrhagic shock in rats. J Biomed Sci 2017; 24(1):8; Bach H Ht, et al., Proteasome inhibition prolongs survival during lethal hemorrhagic shock in rats. J Trauma Acute Care Surg 2013; 74(2):499-507; Bach H Ht, et al., Chemokine (C-X-C motif) receptor 4 and atypical chemokine receptor 3 regulate vascular alpha(1)-adrenergic receptor function. Mol Med 2014; 20:435-447), with slight modifications. In brief, rats were hemorrhaged to a mean arterial blood pressure (MAP) of less than or equal to 30 mmHg for a period of 30 minutes. At the end of the HS period (t=30 min), animals were injected with either vehicle (1 mL LR) or drug in 1 mL LR, followed by fluid resuscitation with 1 mL bolus injections of LR to maintain a systolic blood pressure (SBP) of 90 mmHg or a MAP of 60 mmHg. To avoid fluid overload, bolus injections of LR were limited to 1 mL/min. In the first series of experiments, animals received 1 mL of LR (n=9), 1.1 μmol/kg (n=4) or 5.5 μmol/kg (n=5) INCB3284 in 1 mL LR or […] Maraviroc (n=3) in 1 mL LR at t=30 min. Animals were then resuscitated until t=90 min. At t=0, 15, 30, 60 and 90 min, blood samples were obtained, and plasma prepared. Samples were stored at −70° C. until further processing. At t=90 min, animals were euthanized (isoflurane inhalation, bilateral pneumothorax).
In the second series of experiments, animals received 1 mL of LR (n=10) or 5 μmol/kg INCB3284 in 1 mL LR (n=8) at t=30 min. Animals were resuscitated until t=300 min. Blood samples were obtained for arterial blood gas analyses and measurements of routine laboratory parameters at time points t=0, 30, 90, 150, 210, 270 and 300 min. Death was defined as asystole or loss of a pulse pressure. At the end of the experiments, surviving animals were euthanized as described before. In animals that survived until t=300 min, a gross necropsy was performed after euthanasia, and tissue from lung, small intestine, and colon was collected for measurements of wet-weight/dry-weight ratios.
Arterial blood gases and routine laboratory parameters. Arterial blood gases, electrolytes, creatinine, lactate, hematocrit and hemoglobin were analyzed using the Element point of care veterinary blood gas, electrolyte and critical care analyzer (Cuattro Veterinary USA, Loveland, CO, USA).
Wet-weight/dry-weight ratios.

[1] = increasing doses 0.55, 0.82, 1.4 and 2.75 μmol/kg in 1 mL LR, 10 min intervals
[2] = 5 μmol/kg, animals that survived until t=300 min
[3] = 5 μmol/kg, animals that survived until t=300 min, vs vehicle

Question: Which “MAP during the observation period” value (normal rats; [1]) does the source give for `COc1ccc([C@]2(O)CC[C@@H](N3CC[C@@H](NC(=O)CNC(=O)c4cccc(C(F)(F)F)c4)C3)CC2)cn1` [INCB3284] here?
Answer: remained constant

Question: And the “acute effects on blood pressure” value (normal rats; [1])?
Answer: did not show acute effects on blood pressure

Question: And the “slope of the MAP linear regression line” value (normal rats; increasing doses 0.55-2.75 μmol/kg, not significantly different from zero (p=0.43))?
Answer: −0.011 mmHg/min

Question: And the “colon wet weight/dry weight ratios, difference to vehicle” value (hemorrhagic shock; [2])?
Answer: did not reach statistical significance

Question: And the “small bowel wet weight/dry weight ratios, difference to vehicle” value (hemorrhagic shock; [2])?
Answer: did not reach statistical significance

Question: What about the “lung wet weight/dry weight ratios” value (hemorrhagic shock; [3]) of the same molecule?
Answer: significantly reduced

Question: What about the “wet weight/dry weight ratios of all tissues combined” value (hemorrhagic shock; [3]) of the same molecule?
Answer: significantly reduced

Question: What about the “animals demonstrating the beginning of hemodynamic decompensation” value (hemorrhagic shock; 5 μmol/kg, n=8, p<0.01 vs. vehicle) of the same molecule?
Answer: None

Question: What about the mortality (hemorrhagic shock; 5 μmol/kg, until t=300 min, p<0.05) of the same molecule?
Answer: 0%

Question: What about the median survival time (hemorrhagic shock; 5 μmol/kg, p<0.05 vs. vehicle) of the same molecule?
Answer: > 300 min

Question: What about the “reduction of average fluid requirements” value (hemorrhagic shock; single dose 5 μmol/kg at t=30 min, until t=300 min, vs vehicle) of the same molecule?
Answer: 62±6%

Question: And the average fluid requirements (hemorrhagic shock; single dose 5 μmol/kg at t=30 min, until t=300 min, p<0.05)?
Answer: 61.9 ± 10 mL/kg
